Data taken from article PMC10385442, “Galactoside-Based Molecule Enhanced Antimicrobial Activity through Acyl Moiety Incorporation: Synthesis and In Silico Exploration for Therapeutic Target” (Pharmaceuticals, 2023).
≈ marks a conversion by molar mass, not a printed value. Like-named read-outs stand apart in the source and are kept apart here.

Columns and labels:
[1] = tested on: E. coli (G − ve) (ATCC 8739); experiment: Disc diffusion antibacterial susceptibility; assay type: cell-based, Escherichia coli; settings: E. coli (ATCC 8739), triplicate, NI = No inhibition
Text: (§1) The methodology employed to determine the antibacterial properties of the synthesized compounds (each compound dissolved in dimethyl sulfoxide 7% DMSO) involved the use of the disc diffusion approach. This was done following a previously described method with slight modifications. First, an inoculum was obtained from a bacterial colony and diluted to a concentration of 0.5 McFarland standard in sterile saltwater containing 0.9% NaCl. The suspension was then transferred to a sterile tube and allowed to settle for 5 min, after which the top homogeneous solution was transferred to another sterile tube. The concentration of the solution was adjusted to a 0.5 McFarland turbidity standard to obtain an inoculum of approximately 10^6 CFU/mL.

[2] = tested on: P. aeruginosa (G − ve) (ATCC 9027); experiment: Disc diffusion antibacterial susceptibility; assay type: cell-based; settings: for Diameter of Inhibition Zones: P. aeruginosa (ATCC 9027), triplicate, NI = No inhibition; for antibacterial activity category: P. aeruginosa, category by zone
Text: as §1

[3] = tested on: S. aureus (G + ve) (BTCC 19); experiment: Disc diffusion antibacterial susceptibility; assay type: cell-based; settings: for Diameter of Inhibition Zones: S. aureus (BTCC 19), triplicate, NI = No inhibition
Text: as §1

[4] = tested on: B. subtilis (G + ve) (ATCC 6633); experiment: Disc diffusion antibacterial susceptibility; assay type: cell-based, Bacillus subtilis; settings: B. subtilis (ATCC 6633), triplicate, NI = No inhibition
Text: as §1

[5] = tested on: S. typhi (G − ve) (AE 14612); experiment: Disc diffusion antibacterial susceptibility; assay type: cell-based, Salmonella typhi; settings: S. typhi (AE 14612), triplicate, NI = No inhibition
Text: as §1

[6] = tested on: Aspergillus niger (ATCC 16404); experiment: Antifungal poisoned food method, mycelial growth; assay type: cell-based; settings: NI: no inhibition
Experimental: (§2) The food poisoning method with potato dextrose agar (PDA) as the culture medium was used to test the antifungal action. Twenty milliliters of 45 °C sterilized, melted potato dextrose agar medium (PDA) was placed into sterile 70-mm glass Petri plates. The “poisoned food” method was used to determine how the synthesized MDGP (1) derivatives affected the growth of the fungal mycelium.

[7] = tested on: Aspergillus flavus (ATCC 204304); experiment: Antifungal poisoned food method, mycelial growth; assay type: cell-based; settings: NI: no inhibition
Experimental: as §2

B. subtilis (ATCC 6633) = experiment: MIC and MBC by broth dilution; assay type: cell-based, Bacillus subtilis
Experimental: (§3) To determine the minimum inhibitory concentration (MIC) of the synthesized compounds against the tested bacterial strains, a dilution method was employed. The objective was to establish the lowest concentration of the compound at which approximately 90% of bacterial growth was inhibited. To this end, a bacterial suspension of 300 μL at a concentration of 0.5 McFarland standard was seeded into individual tubes of 9 mL nutrient broth, with each tube receiving 1 mL of different concentrations of the synthesized compound at twofold serial dilutions and 7% DMSO, which served as the negative control. The tubes were then kept at 37 °C for a whole night. The MIC and MBC values were determined by using the naked eye to compare the turbidity of the tube to that of a reference medium with a 0.5 McFarland value.

E. coli (ATCC 8739) = experiment: MIC and MBC by broth dilution; assay type: cell-based, Escherichia coli; settings: for MBC: eradicates 99.9% of inoculum
Experimental: as §3

S. typhi (AE 14612) = experiment: MIC and MBC by broth dilution; assay type: cell-based, Salmonella typhi
Experimental: as §3

[8] = tested on: P. aeruginosa (ATCC 9027); experiment: MIC and MBC by broth dilution; assay type: cell-based
Experimental: as §3

B. cereus (BTCC 19) = experiment: MIC and MBC by broth dilution; assay type: cell-based; settings: for MBC: eradicates 99.9% of inoculum
Experimental: as §3

[9] = Bacillus subtilis, ATCC6633, eradicates 99.9% of inoculum, read-out: MBC
[10] = Bacillus subtilis, ATCC6633, read-out: MIC
[11] = Escherichia coli, ATCC8739, E. coli, read-out: MBC
[12] = Escherichia coli, ATCC8739, E. coli, read-out: MIC
[13] = S. typhi, eradicates 99.9% of inoculum
[14] = Pseudomonas aeruginosa, ATCC9027, eradicates 99.9% of inoculum, read-out: MBC
[15] = Pseudomonas aeruginosa, ATCC9027, read-out: MIC

CC[C@H]1OC(=O)[C@H](C)[C@@H](O[C@H]2C[C@@](C)(OC)[C@@H](O)[C@H](C)O2)[C@H](C)[C@@H](O[C@@H]2O[C@H](C)C[C@H](N(C)C)[C@H]2O)[C@](C)(O)C[C@@H](C)CN(C)[C@H](C)[C@@H](O)[C@]1(C)O [Azithromycin, reference compound] was tested, and the “Diameter of Inhibition Zones” value [1] was “** 17.25 ± 0.2 mm”, the “Diameter of Inhibition Zones” value [2] was “** 18.5 ± 0.3 mm” and the “Diameter of Inhibition Zones” value [3] was “** 17.50 ± 0.2 mm”. The “Diameter of Inhibition Zones” value [4] was “** 18.25 ± 0.2 mm” and the “Diameter of Inhibition Zones” value [5] was “** 18.0 ± 0.1 mm”.
For CO[C@@H]1O[C@H](COC(=O)c2ccccc2Br)[C@H](O)[C@H](O)[C@H]1O [Compound 2, Methyl 6-O-(2-bromobenzoyl)-β-D-galactopyranoside], the “% Inhibition of Fungal Mycelial Growth” value [6] was “* 72.88 ± 1.0%”, the “% Inhibition of Fungal Mycelial Growth” value [7] was “* 85.66 ± 0.9%” and the “Diameter of Inhibition Zones” value [2] was “* 15.00 ± 0.1 mm”. For the same compound, the antibacterial activity category [2] was “high activity (high activity at 15 mm or more)”, the “Diameter of Inhibition Zones” value [3] was 10.50 ± 0.2 mm and the “Diameter of Inhibition Zones” value [5] was 11.25 ± 0.2 mm.
CCCCCCCCCCCC(=O)O[C@H]1[C@@H](OC(=O)CCCCCCCCCCC)[C@@H](COC(=O)c2ccccc2Br)O[C@@H](OC)[C@@H]1OC(=O)CCCCCCCCCCC [Compound 3, Methyl 6-O-(2-bromobenzoyl)-2,3,4-tri-O-lauroyl-β-D-galactopyranoside] gave an MIC (B. subtilis (ATCC 6633)) of 8000 µg/mL (≈ 8.66 mM), an MBC (B. subtilis (ATCC 6633); [9]) of 16000 µg/mL (≈ 17.3 mM) and an MIC (B. subtilis (ATCC 6633); [10]) of 8000 µg/mL (≈ 8.66 mM). For the same compound, the MBC (B. subtilis (ATCC 6633); eradicates 99.9% of inoculum) was 16000 µg/mL (≈ 17.3 mM), the “% Inhibition of Fungal Mycelial Growth” value [6] was “* 64.83 ± 1.1%” and the “% Inhibition of Fungal Mycelial Growth” value [7] was “* 84.02 ± 1.3%”. The “Diameter of Inhibition Zones” value [1] was 11.00 ± 0.2 mm, the MIC (E. coli (ATCC 8739); E. coli) was 2000 µg/mL (≈ 2.16 mM) and the MBC (E. coli (ATCC 8739); E. coli) was 16000 µg/mL (≈ 17.3 mM). For the same compound, the MBC (E. coli (ATCC 8739); [11]) was 16000 µg/mL (≈ 17.3 mM), the MIC (E. coli (ATCC 8739); [12]) was 2000 µg/mL (≈ 2.16 mM) and the “Diameter of Inhibition Zones” value [2] was 11.25 ± 0.3 mm. For the same compound, the “Diameter of Inhibition Zones” value [3] was “* 15.50 ± 0.3 mm”, the antibacterial activity category ([3]; category by zone) was “high activity (high activity at 15 mm or more)” and the MBC (S. typhi (AE 14612); [13]) was 8000 µg/mL (≈ 8.66 mM). For the same compound, the MBC (S. typhi (AE 14612); Salmonella enterica, TYPHI) was 8000 µg/mL (≈ 8.66 mM), the MIC (S. typhi (AE 14612); Salmonella enterica, TYPHI) was 125 µg/mL (≈ 0.135 mM) and the “Diameter of Inhibition Zones” value [4] was “* 13.00 ± 0.1 mm”. It also gave an MBC [8, 14] of 16000 µg/mL (≈ 17.3 mM), an MIC [8, 15] of 250 µg/mL (≈ 0.271 mM) and an MBC ([8]; eradicates 99.9% of inoculum) of 16000 µg/mL (≈ 17.3 mM). For the same compound, the MIC (B. cereus (BTCC 19)) was 8000 µg/mL (≈ 8.66 mM), the MBC (B. cereus (BTCC 19); Bacillus cereus, read-out: MBC) was 8000 µg/mL (≈ 8.66 mM) and the MIC (B. cereus (BTCC 19); Bacillus cereus, read-out: MIC) was 8000 µg/mL (≈ 8.66 mM). The MBC (B. cereus (BTCC 19)) was 8000 µg/mL (≈ 8.66 mM) and the “Diameter of Inhibition Zones” value [5] was “* 12.25 ± 0.1 mm”.
In the case of CCCCCCCCCCCCCC(=O)O[C@H]1[C@@H](OC(=O)CCCCCCCCCCCCC)[C@@H](COC(=O)c2ccccc2Br)O[C@@H](OC)[C@@H]1OC(=O)CCCCCCCCCCCCC [Compound 4, Methyl 6-O-(2-bromobenzoyl)-2,3,4-tri-O-myristoyl-β-D-galactopyranoside], the “% Inhibition of Fungal Mycelial Growth” value [6] is reported as “* 71.19 ± 1.0%”.
In the case of CO[C@@H]1O[C@H](COC(=O)c2ccccc2Br)[C@H](OC(=O)c2cccc(Cl)c2)[C@H](OC(=O)c2cccc(Cl)c2)[C@H]1OC(=O)c1cccc(Cl)c1 [Compound 5, Methyl 6-O-(2-bromobenzoyl)-2,3,4-tri-O-(3-chlorobenzoyl)-β-D-galactopyranoside], the “% Inhibition of Fungal Mycelial Growth” value [6] is reported as 48.73 ± 1.1%, the “% Inhibition of Fungal Mycelial Growth” value [7] is reported as “* 81.97 ± 1.0%” and the “Diameter of Inhibition Zones” value [2] is reported as “* 18.25 ± 0.3 mm”. The antibacterial activity category [2] was “high activity (high activity at 15 mm or more)”.
CO[C@@H]1O[C@H](COC(=O)c2ccccc2Br)[C@H](OC(=O)c2ccc(Cl)cc2)[C@H](OC(=O)c2ccc(Cl)cc2)[C@H]1OC(=O)c1ccc(Cl)cc1 [Compound 6, Methyl 6-O-(2-bromobenzoyl)-2,3,4-tri-O-(4-chlorobenzoyl)-β-D-galactopyranoside] gave an MIC (B. subtilis (ATCC 6633)) of 500 µg/mL (≈ 0.631 mM), an MBC (B. subtilis (ATCC 6633); [9]) of 16000 µg/mL (≈ 20.2 mM) and an MIC (B. subtilis (ATCC 6633); [10]) of 500 µg/mL (≈ 0.631 mM). The MBC (B. subtilis (ATCC 6633); eradicates 99.9% of inoculum) was 16000 µg/mL (≈ 20.2 mM), the “% Inhibition of Fungal Mycelial Growth” value [6] was “* 78.81 ± 1.0%” and the “% Inhibition of Fungal Mycelial Growth” value [7] was “* 81.97 ± 1.2%”. The “Diameter of Inhibition Zones” value [1] was 11.25 ± 0.2 mm, the MIC (E. coli (ATCC 8739); E. coli) was 1000 µg/mL (≈ 1.26 mM) and the MBC (E. coli (ATCC 8739); E. coli) was 8000 µg/mL (≈ 10.1 mM). For the same compound, the MBC (E. coli (ATCC 8739); [11]) was 16000 µg/mL (≈ 20.2 mM), the MIC (E. coli (ATCC 8739); [12]) was 1000 µg/mL (≈ 1.26 mM) and the “Diameter of Inhibition Zones” value [2] was 11.50 ± 0.1 mm. The “Diameter of Inhibition Zones” value [3] was 11.50 ± 0.3 mm, the MIC (S. typhi (AE 14612); S. typhi) was 2000 µg/mL (≈ 2.52 mM) and the MBC (S. typhi (AE 14612); [13]) was 8000 µg/mL (≈ 10.1 mM). The MBC (S. typhi (AE 14612); Salmonella enterica, TYPHI) was 8000 µg/mL (≈ 10.1 mM), the MIC (S. typhi (AE 14612); Salmonella enterica, TYPHI) was 2000 µg/mL (≈ 2.52 mM) and the “Diameter of Inhibition Zones” value [4] was “* 12.75 ± 0.1 mm”. The MIC [8] was 8000 µg/mL (≈ 10.1 mM), the MBC [8, 14] was 16000 µg/mL (≈ 20.2 mM) and the MIC [8, 15] was 8000 µg/mL (≈ 10.1 mM). For the same compound, the MBC ([8]; eradicates 99.9% of inoculum) was 16000 µg/mL (≈ 20.2 mM), the MIC (B. cereus (BTCC 19)) was 2000 µg/mL (≈ 2.52 mM) and the MBC (B. cereus (BTCC 19); Bacillus cereus, read-out: MBC) was 8000 µg/mL (≈ 10.1 mM). The MIC (B. cereus (BTCC 19); Bacillus cereus, read-out: MIC) was 2000 µg/mL (≈ 2.52 mM), the MBC (B. cereus (BTCC 19)) was 8000 µg/mL (≈ 10.1 mM) and the “Diameter of Inhibition Zones” value [5] was “* 13.00 ± 0.3 mm”.
CO[C@@H]1O[C@H](COC(=O)c2ccccc2Br)[C@H](OC(=O)c2ccc(C(C)(C)C)cc2)[C@H](OC(=O)c2ccc(C(C)(C)C)cc2)[C@H]1OC(=O)c1ccc(C(C)(C)C)cc1 [Compound 7, Methyl 6-O-(2-bromobenzoyl)-2,3,4-tri-O-(4-t-butylbenzoyl)-β-D-galactopyranoside] was tested, and the “Diameter of Inhibition Zones” value [1] was 8.50 ± 0.1 mm, the “Diameter of Inhibition Zones” value [2] was 7.50 ± 0.3 mm and the “Diameter of Inhibition Zones” value [4] was 7.75 ± 0.1 mm. The “Diameter of Inhibition Zones” value [5] was 9.00 ± 0.3 mm.
C[C@@H]1[C@H](O)[C@@H](C)/C=C/C=C/CC/C=C/C=C/C=C/C=C/C(O[C@H]2O[C@H](C)[C@@H](O)[C@H](N)[C@@H]2O)CC2O[C@](O)(CC(O)C(O)CCC(O)CC(O)CC(O)CC(=O)O[C@H]1C)CC(O)C2C(=O)O (stereo partly drawn) [Nystatin, reference compound] was tested, and the “% Inhibition of Fungal Mycelial Growth” value [6] was “** 66.7 ± 1.1%” and the “% Inhibition of Fungal Mycelial Growth” value [7] was “** 65.2 ± 1.2%”.
